Test results: patent US12473249B2, “Aromatic compounds and pharmaceutical uses thereof” (BASF AS, priority 2018, dated 2025)
Marks after values point to notes of the source that are not given here.

Columns and labels:
Assay type in all cases: in vivo, mouse
[1] = tested on: hepatic expression of key genes; experiment: Hepatic target gene expression via RNA sequencing in ob/ob AMLN mice; conditions: 0.3 mmol/kg bw day, 4 weeks treatment
Experimental: (§1) ob/ob mice are consistently fibrosis (liver) prone when cholesterol (2%) and 40% fat (containing 18% trans-fatty acids) and 20% fructose are added to a high-caloric diet (i.e., AMLN diet). ob/ob mice on AMLN diet (termed ‘ob/ob AMLN mice’) develop steatohepatitis and fibrosis within a shorter timeframe (<12 weeks) compared with wild-type C57BL/6 mice (AMLN mice) fed the same diet. ob/ob AMLN mice provide an obese diet-induced model of NASH that also allows the study of effects on glycemic control.
(§2) Thirty male ob/ob mice (5 weeks old) were fed the AMLN diet for 15 weeks then randomised into 3 groups of 10 mice/group to receive Compound B or Compound A (both at 0.3 mmol/kg bw day) or no treatment (vehicle) for a further 4 weeks. Assessment of the hepatic expression of key genes regulating plasma lipid concentrations (LDLr), hepatic fibrosis (collA1), bile acid transport/re-uptake (Slc51b and Slc10a2) and inflammation (CD68) was made via RNA sequencing at 4 weeks. To assess the effects of Compound B and Compound A on glycemic control, an oral glucose tolerance test (OGTT) was also performed at 3 weeks. An additional group of mice (n=5) were also treated with a PPAR-γ agonist (pioglitazone, 30 mg/kg bw day) was also included to compare effects upon bodyweight.

C57BL/6 mice = experiment: Hepatic steatosis and organ mass in oral PN diet fed C57BL/6 mice, subsequent experiment at two dosages (H&E); conditions: 19 days
From the text: Male C57BL/6 mice, 6 to 8 weeks old at initiation of the experiments, were used for all experimental groups. Mice were fed either an ad libitum diet of standard rodent chow (calorie composition: 26% protein, 14% fat, 60% carbohydrates) and water or a parenteral nutrition (PN) solution that mimics the PN diet used in neonatal intensive care units. The PN solution was a fat-free, high-carbohydrate liquid diet (20% dextrose, 2% essential and nonessential amino acids, 0.2% pediatric trace elements, 0.5% pediatric multivitamins, 30 mEq of sodium, 20 mEq of potassium, 15 mEq of calcium (as calcium gluconate), 10 mEq of magnesium, 10 mEq of phosphate, 5 mEq of acetate, and 30 mEq of chloride per liter) administered as a single 50 mL bottle per cage which mice consumed ad libitum. […] Prince et al., JPEN J Parenter Enteral Nutr., 2014; 38(5): 608-616.
In a subsequent experiment, both Compound A and Compound B were tested at two dosages. The results of this experiment are described in Example 15.
Male C57BL/6 mice, 6 to 8 weeks old at initiation of the experiments, were used for all experimental groups. One group was fed an ad libitum diet of standard rodent chow and water. The group fed standard rodent chow received no additional treatments during the experimental period and served as a negative control group. Seven other groups (10 mice per group) were fed the PN solution described above ad libitum.
Of the seven groups that received the PN diet, each group received one of the following orogastric protocols administered every other day over 19 days: • (1) Saline: saline solution administered isovolumetric with the Omegaven® group; • (2) MCT: medium-chain triglyceride oil (MCT) (Nestle™ HealthCare Nutrition, Florham Park, NJ), at a dose of 7.4 g of fat/kg body weight; • (3) Omegaven®: Omegaven® (commercial fish oil lipid emulsion) at a dose of 2.4 g fat/kg body weight; • (4) Compound A LOW: Compound A at a dose of 0.3 mmol/kg bw day (diluted in MCT to 0.0375 mmol/mL, resulting in administration of 7.4 g of MCT/kg weight); • (5) Compound A HI: Compound A at a dose of 0.6 mmol/kg bw day (diluted in MCT to 0.075 mmol/mL, resulting in administration of 7.4 g of MCT/kg weight); • (6) Compound B LOW: Compound B at a dose of 0.3 mmol/kg bw day (diluted in MCT to 0.0375 mmol/mL, resulting in administration of 7.4 g of MCT/kg weight); and • (7) Compound B HI: Compound B at a dose of 0.6 mmol/kg bw day (diluted in MCT to 0.075 mmol/mL, resulting in administration of 7.4 g of MCT/kg weight).
After 19 days of treatment, organs were harvested, including the liver, kidney, and spleen, which were analyzed for relative weight between each group. Livers were also fixed and frozen on dry ice, then stored at −80° C. for hematoxylin and eosin (H&E) stain analysis and Oil Red O analysis.

[2] = Relative bodyweight in ob/ob AMLN mice; conditions: 0.3 mmol/kg bw day, 4 weeks treatment, FIG. 11
Experimental: as §1, §2

ob/ob AMLN mice = experiment: Glycemic control (oral glucose tolerance test, fasting glucose and insulin) in ob/ob AMLN mice; conditions: 0.3 mmol/kg bw day
Experimental: as §1
as §2, with “To assess the effects of Compound B and Compound A on glycemic control, an oral glucose tolerance test (OGTT) was also performed at 3 weeks.” left out

APOE*3Leiden mice = experiment: Plasma lipids in high-fat diet fed APOE*3Leiden mice; conditions: for triglyceride levels over 4 weeks: further study with reference compounds, 0.3 mmol/kg bw/day, FIG. 31
Experimental: The APOE*3Leiden mouse expresses a variant of the human apolipoprotein E3 (APOE3), the APOE*3Leiden, in addition to the human apolipoprotein C1 (APOC1).
Studies were performed in APOE*3Leiden mice (13-15 weeks old) placed on a semi-synthetic high fat diet (24% fat w/w) with 0.25% cholesterol w/w. After a 4-week run-in period, mice were sub-divided into groups of 5 mice each and administration of Compound A, Compound B, or vehicle alone was started. Both Compound B and Compound A were administered at a dose of 0.3 mmol/kg bw/day via diet. Sunflower oil (10 ml v/w) was used as a vehicle to facilitate mixing. After 4 weeks of treatment mice were sacrificed by C02 asphyxiation and plasma cholesterol and triglycerides were measured using commercially available kits (Roche*/Hitachi©).
In a further study, performed as described above, the effects of Compound A, Compound B, and Compound C were compared with the effects of Reference Compound 1 ((Z)-3-(pent-2-en-1-yloxy)benzoic acid) and Reference Compound 2 ((Z)-4-(pent-2-en-1-yloxy)benzoic acid) on triglyceride levels. […] The results of this study are described in Example 17.

[3] = oral PN diet, high and low dosages, FIG. 18
[4] = high-fat high-cholesterol diet, 4 weeks treatment
[5] = high-fat high-cholesterol diet, 4 weeks treatment, dose 0.1 mmol/kg bw/day
[6] = high-fat high-cholesterol diet, 4 weeks treatment, dose 0.3 mmol/kg bw/day

SMILES | hepatic expression of Coll al (collagen1a1) versus vehicle ([1]; FIG. 5) | expression of hepatic LDLr versus vehicle ([1]; FIG. 12) | development of steatosis induced by an oral PN diet (H&E stain in isolated liver sections) (C57BL/6 mice; 0.3 and 0.6 mmol/kg bw day in MCT by orogastric gavage, FIGS. 14-17) | body mass vs chow-fed or PN-fed saline groups (C57BL/6 mice; [3]) | liver/body mass vs chow-fed or PN-fed saline groups (C57BL/6 mice; [3]) | spleen/body mass vs chow-fed or PN-fed saline groups (C57BL/6 mice; [3]) | relative bodyweight versus vehicle [2] | total plasma glucose (area-under-the-curve from 0-240 mins) versus vehicle in response to an oral glucose load (ob/ob AMLN mice; after 3 weeks treatment, FIG. 1) | plasma glucose at 30- and 60-mins versus vehicle in response to an oral glucose load (ob/ob AMLN mice; after 3 weeks treatment, FIG. 2) | fasting plasma insulin versus vehicle (ob/ob AMLN mice; after 4 weeks treatment, FIG. 3) | fasting plasma glucose versus vehicle (ob/ob AMLN mice; after 4 weeks treatment, FIG. 4) | plasma TG versus vehicle (APOE*3Leiden mice; [4]) | total plasma cholesterol versus vehicle (APOE*3Leiden mice; [4]) | Reduction in plasma TG vs control (%) (APOE*3Leiden mice; [5]) | Reduction in plasma cholesterol vs control (%) (APOE*3Leiden mice; [5]) | Reduction in plasma TG vs control (%) (APOE*3Leiden mice; [6]) | Reduction in plasma cholesterol vs control (%) (APOE*3Leiden mice; [6]) | triglyceride levels over 4 weeks (APOE*3Leiden mice)
CC/C=C\COc1cccc(C(=O)O)c1C [Compound B, (Z)-2-methyl-3-(pent-2-en-1-yloxy)benzoic acid] | significantly reduce | significantly increase | prevented the development of steatosis | not significantly different | not significantly different | not significantly different | no effect | significantly reduce | significantly reduce | reduce | significantly reduce | significantly reduce | significantly reduce | 45** % | 24** % | 63** % | 27** % | 
CC/C=C\COc1cccc(C(=O)O)c1 [Reference Compound 1, (Z)-3-(pent-2-en-1-yloxy)benzoic acid, reference compound] |  |  |  |  |  |  |  |  |  |  |  |  |  |  |  |  |  | did affect
CC/C=C\COc1ccc(C(=O)O)cc1 [Reference Compound 2, (Z)-4-(pent-2-en-1-yloxy)benzoic acid, reference compound] |  |  |  |  |  |  |  |  |  |  |  |  |  |  |  |  |  | did affect
